Values quoted from earlier work in patent publication US20080286377A1 (priority 2001, published 2008).

How the values were obtained:
[1] = tested on: osteolysis associated with wear debris; conditions: systemic administration
[2] = activity assays
bone resorption = conditions: mild to moderate Paget's disease; administration for 10 days (intravenous) to 6 months (oral); SAP activity and UHP excretion as indicators

NCCCC(O)(P(=O)(O)O)P(=O)(O)O [alendronate]
osteolysis associated with wear debris [1]: inhibited osteolysis
prevention of resorption, 10-second contact (alveolar bone resorption; 10-second contact of soaked pellet to alveolar bone): ineffective in preventing resorption
bone resorption after local administration (alveolar bone resorption; drug-soaked pellet against alveolar bone for 2 hours, monitored 21 days later): significantly reduced bone resorption
prevention of resorption, systemic administration (alveolar bone resorption; systemic administration): effective

N.N.[Cl][Pt][Cl] [cisplatin]
effect of PMMA polymerization process on drug potency [2]: did not adversely impact or alter the therapeutic potential

CN(Cc1cnc2nc(N)nc(N)c2n1)c1ccc(C(=O)N[C@@H](CCC(=O)O)C(=O)O)cc1 [methotrexate]
effect of PMMA polymerization process on drug potency [2]: did not adversely impact or alter the therapeutic potential

NCCC(O)(P(=O)(O)O)P(=O)(O)O [pamidronate disodium]
biochemical remission of bone resorption, mean duration (bone resorption): 2.7 years

Gentamicin
effect of PMMA polymerization process on drug potency [2]: did not adversely impact or alter the therapeutic potential
